Target: T1, GPR119 receptor (Mesocricetus auratus, UniProt A0A1U8CD06)
T1 construct: which endogenously express the GPR119 receptor; host or cells: HIT-T15 hamster pancreatic islet cells
T1 sequence (A0A1U8CD06 1-334): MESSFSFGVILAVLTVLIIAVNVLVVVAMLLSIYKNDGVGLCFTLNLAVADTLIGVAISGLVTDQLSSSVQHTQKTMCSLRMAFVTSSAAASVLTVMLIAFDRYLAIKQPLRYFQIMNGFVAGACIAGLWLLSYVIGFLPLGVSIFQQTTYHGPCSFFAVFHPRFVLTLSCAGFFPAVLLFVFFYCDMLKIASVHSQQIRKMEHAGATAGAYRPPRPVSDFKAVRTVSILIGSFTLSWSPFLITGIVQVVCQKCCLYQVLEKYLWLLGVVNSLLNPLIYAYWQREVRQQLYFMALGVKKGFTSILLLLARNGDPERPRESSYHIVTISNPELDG
Experiment: cAMP assay in HIT-T15 hamster pancreatic islet cells (functional agonist activity)
Format: cell-based
Details: HIT-T15 cells endogenously expressing GPR119; 30 min at 25° C.; intracellular cAMP
How it was run: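 HIT-T15 cells (endogenous GPR119), 9000/well, exposed to agonist 30 min at 25° C with 0.5 mM IBMX and 0.5 mg/ml BSA. Lysate cAMP measured by chemiluminescent competitive immunoassay; EC50 from curve fit.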

Point of comparison: `CS(=O)(=O)c1ccc(Oc2ncnc3c2cnn3C2CCN(C(=O)c3ccccc3)CC2)cc1` [Example 149, {4-[4-(4-Methanesulfonyl-phenoxy)-pyrazolo[3,4-d]pyrimidin-1-yl]-piperidin-1-yl}-phenylmethanone], EC50 1.7 µM. Against it:
- Cc1ncccc1Oc1ncnc2c1cnn2C1CCN(C(=O)OC2CCC2)CC1 [Example 116, 4-[4-(2-Methyl-pyridin-3-yloxy)-pyrazolo[3,4-d]pyrimidin-1-yl]-piperidine-1-carboxylic acid cyclobutyl ester] — 3.1-fold lower, 0.55 µM
- CCOc1ccc(Oc2ncnc3c2cnn3C2CCN(C(=O)OC3CCCC3)CC2)c(F)c1 [Example 117, 4-[4-(4-Ethoxy-2-fluoro-phenoxy)-pyrazolo[3,4-d]pyrimidin-1-yl]-piperidine-1-carboxylic acid cyclopentyl ester] — 10-fold lower, 0.17 µM
- N#Cc1ccccc1Oc1ncnc2c1cnn2C1CCN(C(=O)OC2CCCC2)CC1 [Example 118, 4-[4-(2-Cyano-phenoxy)-pyrazolo[3,4-d]pyrimidin-1-yl]-piperidine-1-carboxylic acid cyclopentyl ester] — 5-fold lower, 0.34 µM
- N#Cc1ccc(F)c(F)c1Oc1ncnc2c1cnn2C1CCN(C(=O)OC2CCCC2)CC1 [Example 119, 4-[4-(6-Cyano-2,3-difluoro-phenoxy)-pyrazolo[3,4-d]pyrimidin-1-yl]-piperidine-1-carboxylic acid cyclopentyl ester] — 27-fold lower, 0.063 µM
- CS(=O)(=O)c1ccc(Oc2ncnc3c2cnn3C2CCN(C(=O)OC3CCCC3)CC2)c(F)c1 [Example 120, 4-[4-(2-Fluoro-4-methanesulfonyl-phenoxy)-pyrazolo[3,4-d]pyrimidin-1-yl]-piperidine-1-carboxylic acid cyclopentyl ester] — 55-fold lower, 0.031 µM
- Cc1ncccc1Oc1ncnc2c1cnn2C1CCN(C(=O)OC2CCCC2)CC1 [Example 121, 4-[4-(2-Methyl-pyridin-3-yloxy)-pyrazolo[3,4-d]pyrimidin-1-yl]-piperidine-1-carboxylic acid cyclopentyl ester] — 6.5-fold lower, 0.26 µM
- Cc1ncccc1Oc1ncnc2c1cnn2C1CCN(C(=O)Oc2ccccc2)CC1 [Example 122, 4-[4-(2-Methyl-pyridin-3-yloxy)-pyrazolo[3,4-d]pyrimidin-1-yl]-piperidine-1-carboxylic acid phenyl ester] — 1.5-fold lower, 1.1 µM
- Cc1ncccc1Oc1ncnc2c1cnn2C1CCN(C(=O)Oc2ccc([N+](=O)[O-])cc2)CC1 [Example 123, 4-[4-(2-Methyl-pyridin-3-yloxy)-pyrazolo[3,4-d]pyrimidin-1-yl]-piperidine-1-carboxylic acid 4-nitro-phenyl ester] — 1.6-fold higher, 2.7 µM
- Cc1ncccc1Oc1ncnc2c1cnn2C1CCN(C(=O)OCc2ccccc2)CC1 [Example 124, 4-[4-(2-Methyl-pyridin-3-yloxy)-pyrazolo[3,4-d]pyrimidin-1-yl]-piperidine-1-carboxylic acid benzyl ester] — 7.1-fold lower, 0.24 µM
- Cc1ncccc1Oc1ncnc2c1cnn2C1CCN(C(=O)OC2CCCCC2)CC1 [Example 125, 4-[4-(2-Methyl-pyridin-3-yloxy)-pyrazolo[3,4-d]pyrimidin-1-yl]-piperidine-1-carboxylic acid cyclohexyl ester] — 3-fold lower, 0.57 µM
- CC(C)c1noc(N2CCC(n3ncc4c(Oc5ccc(S(C)(=O)=O)cc5)ncnc43)CC2)n1 [Example 126, 1-[1-(3-Isopropyl-[1,2,4]oxadiazol-5-yl)-piperidin-4-yl]-4-(4-methanesulfonyl-phenoxy)-1H-pyrazolo[3,4-d]pyrimidine] — 4-fold lower, 0.43 µM
- CC(C)c1noc(N2CCC(n3ncc4c(Oc5ccc(S(C)(=O)=O)cc5F)ncnc43)CC2)n1 [Example 127, 4-(2-Fluoro-4-methanesulfonyl-phenoxy)-1-[1-(3-isopropyl-[1,2,4]oxadiazol-5-yl)-piperidin-4-yl]-1H-pyrazolo[3,4-d]pyrimidine] — 25-fold lower, 0.068 µM
- CC(C)c1noc(N2CCC(n3ncc4c(Oc5ccc(S(C)(=O)=O)c(F)c5)ncnc43)CC2)n1 [Example 128, 4-(3-Fluoro-4-methanesulfonyl-phenoxy)-1-[1-(3-isopropyl-[1,2,4]oxadiazol-5-yl)-piperidin-4-yl]-1H-pyrazolo[3,4-d]pyrimidine] — 11-fold lower, 0.16 µM
- Cc1ncccc1Oc1ncnc2c1cnn2C1CCN(c2nc(C(C)C)no2)CC1 [Example 129, 1-[1-(3-Isopropyl-[1,2,4]oxadiazol-5-yl)-piperidin-4-yl]-4-(2-methyl-pyridin-3-yloxy)-1H-pyrazolo[3,4-d]pyrimidine] — within 1.5-fold, 2.3 µM
- CS(=O)(=O)c1ccc(Oc2ncnc3c2cnn3C2CCN(c3ccc(Cl)nn3)CC2)cc1 [Example 130, 1-[1-(6-Chloro-pyridazin-3-yl)-piperidin-4-yl]-4-(4-methanesulfonyl-phenoxy)-1H-pyrazolo[3,4-d]pyrimidine] — 2.4-fold lower, 0.71 µM
- CC(C)c1noc(C2CCC(n3ncc4c(Oc5ccc(S(C)(=O)=O)cc5F)ncnc43)CC2)n1 (centres unmarked) [Example 131, 4-(2-Fluoro-4-methanesulfonyl-phenoxy)-1-[4-(3-isopropyl-[1,2,4]oxadiazol-5-yl)-cyclohexyl]-1H-pyrazolo[3,4-d]pyrimidine] — 4.4-fold lower, 0.39 µM
- CC(C)c1noc([C@H]2CC[C@H](n3ncc4c(Oc5ccc(S(C)(=O)=O)cc5F)ncnc43)CC2)n1 [Example 132, 4-(2-Fluoro-4-methanesulfonyl-phenoxy)-1-[4-(3-isopropyl-[1,2,4]oxadiazol-5-yl)-trans-cyclohexyl]-1H-pyrazolo[3,4-d]pyrimidine] — 4.9-fold lower, 0.35 µM
- Cc1nnnn1-c1ccc(Oc2ncnc3c2cnn3[C@H]2CC[C@H](c3nc(C(C)C)no3)CC2)cc1 [Example 133, 1-[4-(3-Isopropyl-[1,2,4]oxadiazol-5-yl)-trans-cyclohexyl]-4-[4-(5-methyl-tetrazol-1-yl)phenoxy]-1H-pyrazolo[3,4-d]pyrimidine] — 2-fold higher, 3.34 µM
- Cc1ncccc1Oc1ncnc2c1cnn2C1CCC(c2nc(C(C)C)no2)CC1 (centres unmarked) [Example 135, 1-[4-(3-Isopropyl-[1,2,4]oxadiazol-5-yl)-cyclohexyl]-4-(2-methyl-pyridin-3-yloxy)-1H-pyrazolo[3,4-d]pyrimidine] — 1.8-fold lower, 0.92 µM
- CC(C)C(=O)N1CCC(n2ncc3c(Oc4ccc(S(C)(=O)=O)cc4)ncnc32)CC1 [Example 136, 1-{4-[4-(4-Methanesulfonyl-phenoxy)-pyrazolo[3,4-d]pyrimidin-1-yl]-piperidin-1-yl}-2-methyl-propan-1-one] — 1.7-fold lower, 0.99 µM
- CC(C)(C)C(=O)N1CCC(n2ncc3c(Oc4cc(F)c(F)cc4F)ncnc32)CC1 [Example 137, 2,2-Dimethyl-1-{4-[4-(2,4,5-trifluoro-phenoxy)-pyrazolo[3,4-d]pyrimidin-1-yl]-piperidin-1-yl}-propan-1-one] — within 1.5-fold, 1.6 µM
- CC(C)(C)C(=O)N1CCC(n2ncc3c(Oc4ccc(S(C)(=O)=O)cc4)ncnc32)CC1 [Example 138, 1-{4-[4-(4-Methanesulfonyl-phenoxy)-pyrazolo[3,4-d]pyrimidin-1-yl]-piperidin-1-yl}-2,2-dimethyl-propan-1-one] — 2.2-fold lower, 0.78 µM
- CS(=O)(=O)c1ccc(Oc2ncnc3c2cnn3C2CCN(C(=O)C3CCC3)CC2)cc1 [Example 140, Cyclobutyl-{4-[4-(4-methanesulfonyl-phenoxy)-pyrazolo[3,4-d]pyrimidin-1-yl]-piperidin-1-yl}-methanone] — 2.3-fold lower, 0.75 µM
- CS(=O)(=O)c1ccc(Oc2ncnc3c2cnn3C2CCN(C(=O)C3CCCC3)CC2)cc1 [Example 141, Cyclopentyl-{4-[4-(4-methanesulfonyl-phenoxy)-pyrazolo[3,4-d]pyrimidin-1-yl]-piperidin-1-yl}-methanone] — 4-fold lower, 0.42 µM
- CC(C)CC(=O)N1CCC(n2ncc3c(Oc4ccc(S(C)(=O)=O)cc4)ncnc32)CC1 [Example 142, 1-{4-[4-(4-Methanesulfonyl-phenoxy)-pyrazolo[3,4-d]pyrimidin-1-yl]-piperidin-1-yl}-3-methyl-butan-1-one] — 5.2-fold lower, 0.33 µM
- CC(C)CCC(=O)N1CCC(n2ncc3c(Oc4ccc(S(C)(=O)=O)cc4)ncnc32)CC1 [Example 143, 1-{4-[4-(4-Methanesulfonyl-phenoxy)-pyrazolo[3,4-d]pyrimidin-1-yl]-piperidin-1-yl}-4-methylpentan-1-one] — 3.9-fold lower, 0.44 µM
- CC(C)(C)CC(=O)N1CCC(n2ncc3c(Oc4ccc(S(C)(=O)=O)cc4)ncnc32)CC1 [Example 144, 1-{4-[4-(4-Methanesulfonyl-phenoxy)-pyrazolo[3,4-d]pyrimidin-1-yl]-piperidin-1-yl}-3,3-dimethyl-butan-1-one] — 6.3-fold lower, 0.27 µM
- CS(=O)(=O)c1ccc(Oc2ncnc3c2cnn3C2CCN(C(=O)CC3CCCCC3)CC2)cc1 [Example 145, 2-Cyclohexyl-1-{4-[4-(4-methanesulfonyl-phenoxy)-pyrazolo[3,4-d]pyrimidin-1-yl]-piperidin-1-yl}-ethanone] — 2.9-fold lower, 0.58 µM
- CS(=O)(=O)c1ccc(Oc2ncnc3c2cnn3C2CCN(C(=O)CCc3ccccc3)CC2)cc1 [Example 146, 1-{4-[4-(4-Methanesulfonyl-phenoxy)-pyrazolo[3,4-d]pyrimidin-1-yl]-piperidin-1-yl}-3-phenyl-propan-1-one] — 1.7-fold lower, 1 µM
- CCOc1ccc(Oc2ncnc3c2cnn3C2CCN(C(=O)C3CCCC3)CC2)c(F)c1 [Example 147, Cyclopentyl-{4-[4-(4-ethoxy-2-fluoro-phenoxy)-pyrazolo[3,4-d]pyrimidin-1-yl]-piperidin-1-yl}-methanone] — 6.5-fold lower, 0.26 µM
- CS(=O)(=O)c1ccc(Oc2ncnc3c2cnn3C2CCN(C(=O)C(F)(F)F)CC2)cc1 [Example 148, 2,2,2-Trifluoro-1-{4-[4-(4-methanesulfonyl-phenoxy)-pyrazolo[3,4-d]pyrimidin-1-yl]-piperidin-1-yl}-ethanone] — the same, 1.7 µM

From US8188098B2, “GPR119 receptor agonists” (Hoffmann-La Roche Inc., priority 2008, dated 2012)
